{
  "source": "patent US8436039B2",
  "about": "“Inhibitors of the ATB(0,+) transporter and uses thereof” (Georgia Health Sciences University Research Institute, Inc., priority 2008, dated 2013)",
  "assay_type_in_all_cases": "cell-based",
  "key": {"[1]": {"molecular_target": "T1, mouse ATB^0,+ (Mus musculus, UniProt Q9JMA9)", "T1 sequence (Q9JMA9 1-638)": "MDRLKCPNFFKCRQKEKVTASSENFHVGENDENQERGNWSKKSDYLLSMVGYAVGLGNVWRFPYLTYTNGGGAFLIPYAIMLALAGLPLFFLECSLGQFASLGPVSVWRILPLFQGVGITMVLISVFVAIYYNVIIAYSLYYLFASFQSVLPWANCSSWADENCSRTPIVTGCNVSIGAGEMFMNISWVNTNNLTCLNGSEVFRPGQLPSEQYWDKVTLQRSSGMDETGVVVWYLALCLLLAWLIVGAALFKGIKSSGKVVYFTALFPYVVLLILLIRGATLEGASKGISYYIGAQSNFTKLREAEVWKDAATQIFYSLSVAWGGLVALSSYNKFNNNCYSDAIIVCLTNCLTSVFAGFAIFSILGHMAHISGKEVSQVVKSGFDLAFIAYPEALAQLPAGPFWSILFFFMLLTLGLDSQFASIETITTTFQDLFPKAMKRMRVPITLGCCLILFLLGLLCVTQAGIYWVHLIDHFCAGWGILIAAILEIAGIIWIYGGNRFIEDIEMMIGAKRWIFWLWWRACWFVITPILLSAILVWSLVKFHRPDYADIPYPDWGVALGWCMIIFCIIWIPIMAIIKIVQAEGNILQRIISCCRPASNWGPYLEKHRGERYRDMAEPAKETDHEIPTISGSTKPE", "experiment": "Inhibition of ATB^0,+-mediated glycine uptake in HRPE cells expressing cloned mouse ATB^0,+", "conditions": "glycine 10 μM; inhibitor 1 mM; 30 min; NaCl; HRPE cells"}, "[2]": {"molecular_target": "T1, mouse ATB^0,+", "experiment": "Substrate-induced inward currents in X. laevis oocytes expressing mouse ATB^0,+ (two-microelectrode voltage clamp)", "conditions": "NaCl, voltage clamp; for inward currents induced in ATB^0,+-expressing oocytes: 2.5 mM", "procedure": "(§1) Capped cRNA from the cloned mouse or human ATB^0,+ cDNA was synthesized using the mMESSAGE mMACHTNE kit (Ambion, Austin, Tex., U.S.A.). Mature oocytes (stage IV or V) from X. laevis were injected with 50 ng of cRNA. Uninjected oocytes served as controls. The oocytes were used for electrophysiological studies 3-6 days after cRNA injection. Electrophysiological studies were performed by the two-microelectrode voltage-clamp method (Nakanishi et al., 2001, J. Physiol. 532, 297-304). Oocytes were superfused with an NaCl-containing buffer (100 mM NaCl, 2 mM KCl, 1 mM MgCl2, 1 mM CaCl2, 3 mM Hepes, 3 mM Mes and 3 mM Tris, pH 7.5), followed by the same buffer containing tryptophan derivatives. The membrane potential was clamped at −50 mV. The differences between the steady-state currents measured in the presence and absence of substrates were considered as the substrate-induced currents. In the analysis of the saturation kinetics of substrate-induced currents, the kinetic parameter K0.5 (i.e. substrate concentration necessary for induction of half-maximal current) was calculated by fitting the values of the substrate-induced currents to the Michaelis-Menten equation. The Na^+ and Cl^− activation kinetics of substrate-induced currents were analysed by measuring the substrate-specific currents in the presence of increasing concentrations of Na^+ (concentration of Cl^− kept constant at 100 mM) or in the presence of increasing concentrations of Cl^− (concentration of Na^+ kept constant at 100 mM). In these experiments, the composition of the superfusion buffer was modified to contain 2 mM potassium gluconate, 1 mM MgSO4 and 1 mM calcium gluconate in place of KCl, MgCl2 and CaCl2 respectively. The data from these experiments were analysed by the Hill equation to determine the Hill coefficient (h; number of Na^+ and Cl^− ions involved in the activation process). The kinetic parameters were determined by using the commercially available computer program Sigma Plot, version 6.0 (SPSS, Chicago, Ill., U.S.A.). Uninjected oocytes were used to determine the currents induced by tryptophan derivatives due to entry via transporters that may be constitutively expressed in the oocytes. At a concentration of 2.5 mM, the currents induced by these compounds were in the range of 0-3 nA in uninjected oocytes. These currents were less than 2% of the corresponding currents induced in ATB^0,+ cRNA-injected oocytes. Therefore the endogenous currents associated with the constitutively expressed transporters were not considered in the analysis of kinetic parameters of ATB^0,+ transport activity.\nThe above studies with the mammalian cell expression system have focused on the interaction of 1-methyltryptophan and other tryptophan derivatives with ATB^0,+ by examining the effects of these compounds on the transporter-mediated glycine uptake. These studies have shown convincingly that 1-methyltryptophan interacts with ATB^0,+, with the L-isomer having much higher affinity for the transporter than the D-isomer. However, these studies have not shown whether or not 1-methyltryptophan is actually a transportable substrate for ATB^0,+. It is possible that 1-methyltryptophan inhibits ATB^0,+-mediated glycine uptake simply by blocking the interaction of glycine with the substrate-binding site of the transporter, rather than by actually competing with glycine for the transport process. […] We wanted to know whether 1-methyltryptophan can actually be transported by ATB^0,+. For this, we used the X. laevis oocyte expression system. Since the transport process mediated by ATB^0,+ is electrogenic, exposure of ATB^0,+-expressing oocytes to transportable substrates will induce an inward current in an Na^+- and Cl^−-dependent manner. Exposure of the same oocytes to blockers will interfere with currents induced by transportable substrates, but will not induce currents by themselves. […]"}, "[3]": {"molecular_target": "T2, ATB^0,+ in MCF7 cells (Homo sapiens, UniProt Q9UN76)", "T2 construct": "host or cells: MCF7", "T2 sequence (Q9UN76 1-642)": "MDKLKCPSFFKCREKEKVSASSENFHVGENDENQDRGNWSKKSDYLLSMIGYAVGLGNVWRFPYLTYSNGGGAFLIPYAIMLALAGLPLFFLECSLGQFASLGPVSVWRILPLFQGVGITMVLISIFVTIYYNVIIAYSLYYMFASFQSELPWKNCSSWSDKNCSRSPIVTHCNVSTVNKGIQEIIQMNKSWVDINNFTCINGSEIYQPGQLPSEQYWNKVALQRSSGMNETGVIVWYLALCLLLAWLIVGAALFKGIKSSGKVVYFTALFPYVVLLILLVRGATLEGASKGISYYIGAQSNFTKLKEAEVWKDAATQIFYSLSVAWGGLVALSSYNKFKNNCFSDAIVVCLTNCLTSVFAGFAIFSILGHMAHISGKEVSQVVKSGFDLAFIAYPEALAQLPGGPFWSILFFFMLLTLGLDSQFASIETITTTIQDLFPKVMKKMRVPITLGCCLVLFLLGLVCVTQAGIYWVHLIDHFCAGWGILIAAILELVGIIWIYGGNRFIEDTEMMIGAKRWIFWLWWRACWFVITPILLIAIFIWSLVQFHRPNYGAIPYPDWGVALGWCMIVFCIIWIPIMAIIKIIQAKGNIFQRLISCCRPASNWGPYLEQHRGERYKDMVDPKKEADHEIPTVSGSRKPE", "experiment": "D-serine uptake in MCF7 cells (constitutively expressed ATB^0,+)", "conditions": "MCF7 cells; for IC50: D-serine 5 μM, NaCl, read-out: IC50 for inhibition of D-serine uptake", "procedure": "Cells were seeded and grown in 24-well culture plates to confluency and used for uptake measurements. Radiolabelled glycine or D-serine was used as the substrate to determine the transport function of ATB^0,+. Uptake measurements were routinely made in an NaCl-containing buffer (25 mM Hepes/Tris buffer, pH 7.4, 140 mM NaCl, 5.4 mM KCl, 1.8 mM CaCl2, 0.8 mM MgSO4 and 5 mM glucose). Ion dependence of the transport process was evaluated by studying the uptake activity in buffers of varying compositions. NaCl in the uptake buffer was replaced iso-osmotically with NMDG (N-methyl-D-glucamine) chloride to prepare an Na^+-free buffer, and with sodium gluconate to prepare a Cl^−-free buffer. Linear uptake rates were determined by employing a 10 min incubation period, based on time course experiments. Na^+-activation kinetics was analysed by studying the uptake rates in the presence of varying concentrations of Na^+ (2.5-140 mM) in the uptake buffer with Cl^− concentration kept constant at 140 mM. This was done by replacing NaCl with appropriate concentrations of NMDG. Cl^−-activation kinetics was analysed by studying the uptake rates in the presence of varying concentrations of Cl^− (2.5-100 mM) in the uptake buffer with Na^+ concentration kept constant at 140 mM. This was done by replacing NaCl with appropriate concentrations of sodium gluconate. Uptake data for Na^+- and Cl^−-activation kinetics were analysed using the Hill equation, and values for K0.5 for Na^+ and Cl^− and for the Hill coefficient (h) were determined by linear and non-linear regression methods. A commercially available software program (Sigma Plot, version 6.0; SPSS) was used for this purpose. Substrate specificity of the uptake process was evaluated by monitoring the effects of unlabelled amino acids (5 mM) on the uptake of radiolabelled glycine or D-serine (5 μM: radiolabelled substrate, 0.05 μM; unlabelled substrate, 4.95 μM).\nThe kinetic nature of inhibition of D-serine uptake by α-methyl-DL-tryptophan was investigated in MCF7 cells by monitoring the uptake at increasing concentrations of D-serine (range, 50-2000 μM) in the absence and presence of 100 μM α-methyl-DL-tryptophan. The kinetic parameters were calculated by linear regression (Eadie-Hofstee plots) and the values were confirmed by non-linear regression.\nWe employed a similar experimental strategy to detect specifically the transport function of ATB^0,+ in the remaining seven cell lines. […] We also investigated the effect of α-methyl-DL-tryptophan on D-serine uptake in MCF7 cells."}, "[4]": {"molecular_target": "T3, human ATB^0,+ (Homo sapiens, UniProt Q9UN76)", "T3 construct": "The human ATB^0,+ cDNA was cloned from an MCF7 cell (a human mammary epithelial cancer cell line) cDNA library; expressed in transfected cells; host or cells: Xenopus laevis oocytes injected with 50 ng capped cRNA", "T3 sequence (Q9UN76 1-642)": "T2 sequence (Q9UN76 1-642)", "experiment": "Block of inward currents induced by amino acid mixture simulating plasma in X. laevis oocytes expressing human ATB^0,+", "conditions": "even at 1 mM; amino acid mixture simulating plasma", "procedure": "as §1\nThese studies with α-methyl-DL-tryptophan as a blocker of ATB^0,+ were carried out with L-tryptophan at sub-saturating concentrations. […] Therefore, using the Xenopus oocyte heterologous expression system, we monitored the transport activity of human ATB^0,+ in the presence of an amino acid mixture consisting of 18 different amino acids, each at its respective physiological concentration found in plasma (Glew et al., 2004, Clin. Chim. Acta 342, 179-185) (Table 1). Inward currents were detected under these conditions in oocytes expressing human ATB^0,+. […] We then monitored the ability of α-methyl-DL-tryptophan to block the inward currents induced by the same mixture of amino acids in oocytes expressing human ATB^0,+ (FIG. 4B). […]"}, "[5]": {"molecular_target": "human LAT1/4F2hc (Homo sapiens, UniProt Q01650)", "sequence (Q01650 whole entry)": "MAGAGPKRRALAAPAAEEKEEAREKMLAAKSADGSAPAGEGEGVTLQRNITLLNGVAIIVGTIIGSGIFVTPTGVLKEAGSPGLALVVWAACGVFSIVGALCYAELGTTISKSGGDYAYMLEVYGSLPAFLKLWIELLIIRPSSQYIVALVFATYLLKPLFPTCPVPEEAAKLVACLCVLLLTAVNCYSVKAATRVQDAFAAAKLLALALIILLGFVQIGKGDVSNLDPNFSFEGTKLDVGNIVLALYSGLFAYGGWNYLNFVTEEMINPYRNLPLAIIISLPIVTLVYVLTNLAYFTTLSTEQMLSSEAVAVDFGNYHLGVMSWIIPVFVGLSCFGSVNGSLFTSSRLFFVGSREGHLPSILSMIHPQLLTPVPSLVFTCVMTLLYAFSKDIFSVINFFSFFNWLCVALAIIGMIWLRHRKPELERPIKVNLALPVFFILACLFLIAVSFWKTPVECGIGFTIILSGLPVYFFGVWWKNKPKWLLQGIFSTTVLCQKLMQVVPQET", "sequence (P08195 102-630 partner)": "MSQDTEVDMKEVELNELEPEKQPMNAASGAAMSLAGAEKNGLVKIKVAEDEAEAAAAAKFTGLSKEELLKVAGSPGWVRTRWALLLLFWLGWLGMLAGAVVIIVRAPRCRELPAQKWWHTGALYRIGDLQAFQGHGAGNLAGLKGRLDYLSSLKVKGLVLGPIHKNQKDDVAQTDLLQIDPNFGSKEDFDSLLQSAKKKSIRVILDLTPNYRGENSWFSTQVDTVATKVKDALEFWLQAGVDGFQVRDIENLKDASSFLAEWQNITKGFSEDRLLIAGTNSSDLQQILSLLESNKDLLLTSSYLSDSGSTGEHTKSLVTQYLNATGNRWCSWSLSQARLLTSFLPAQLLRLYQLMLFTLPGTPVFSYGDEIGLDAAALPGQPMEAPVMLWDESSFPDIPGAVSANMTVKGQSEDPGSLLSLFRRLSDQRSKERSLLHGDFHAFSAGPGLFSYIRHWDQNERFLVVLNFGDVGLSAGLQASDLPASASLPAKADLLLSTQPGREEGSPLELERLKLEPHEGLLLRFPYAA", "experiment": "Inhibition of LAT1 transport function: L-valine uptake in HRPE cells co-expressing human LAT1 and human 4F2hc", "conditions": "1 mM; L-[14C]valine 0.75 μM; 5 min"}},
  "data": [
    {"smiles": "Cc1cccc2[nH]cc(CC(N)C(=O)O)c12", "note": "(racemic) [4-methyl-DL-tryptophan]", "values": [
      {"measurement": "inhibition of ATB^0,+-specific glycine uptake", "setting": "[1]", "result": "inhibited"}
    ]},
    {"smiles": "Cc1ccc2[nH]cc(CC(N)C(=O)O)c2c1", "note": "(racemic) [5-methyl-DL-tryptophan]", "values": [
      {"measurement": "inhibition of ATB^0,+-specific glycine uptake", "setting": "[1]", "result": "inhibited"}
    ]},
    {"smiles": "Cc1ccc2c(CC(N)C(=O)O)c[nH]c2c1", "note": "(racemic) [6-methyl-DL-tryptophan]", "values": [
      {"measurement": "inhibition of ATB^0,+-specific glycine uptake", "setting": "[1]", "result": "inhibited"}
    ]},
    {"smiles": "N[C@@H](Cc1c[nH]c2ccc(O)cc12)C(=O)O", "note": "[5-hydroxy-L-tryptophan]", "values": [
      {"measurement": "inhibition of ATB^0,+-specific glycine uptake", "setting": "[1]", "result": "inhibited"}
    ]},
    {"smiles": "N[C@H](Cc1c[nH]c2ccccc12)C(=O)O", "note": "[D-tryptophan]", "values": [
      {"measurement": "inhibition of ATB^0,+-specific glycine uptake", "setting": "[1]", "result": "inhibited"},
      {"measurement": "Michaelis constant (K0.5) of substrate-induced currents", "setting": "[2]; saturation kinetics", "result": "288 ± 48", "unit": "µM"}
    ]},
    {"smiles": "N[C@H](CO)C(=O)O", "note": "[D-serine]", "values": [
      {"measurement": "Kt for D-serine uptake", "setting": "[3]; absence of the blocker", "result": "517 ± 38", "unit": "µM"},
      {"measurement": "Vmax for D-serine uptake", "setting": "[3]; absence of the blocker", "result": "32.4±1.5 nmol/mg of protein per 15 min"}
    ]},
    {"smiles": "NCCc1c[nH]c2ccc(O)cc12", "note": "[5-hydroxytryptamine]", "values": [
      {"measurement": "inhibition of ATB^0,+-specific glycine uptake", "setting": "[1]", "result": "not able to inhibit"},
      {"measurement": "inward currents induced in ATB^0,+-expressing oocytes", "setting": "[2]", "result": "did not induce currents"}
    ]},
    {"smiles": "C[C@@](N)(Cc1c[nH]c2ccccc12)C(=O)O", "note": "[α-methyl-D-tryptophan, α-Methyl-D-Tryptophan]", "values": [
      {"measurement": "inhibition at 1000 µM", "setting": "[4]", "result": "≤ 40", "unit": "%"}
    ]},
    {"smiles": "N[C@@H](Cc1c[nH]c2ccccc12)C(=O)O", "note": "[tryptophan]", "values": [
      {"measurement": "effect on cDNA-induced valine uptake", "setting": "[5]", "result": "abolished completely"}
    ]},
    {"smiles": "NCCCC[C@H](N)C(=O)O", "note": "[lysine]", "values": [
      {"measurement": "IC50", "setting": "[3]", "result": "250 to 500", "unit": "µM"}
    ]},
    {"smiles": "N=C(N)NCCC[C@H](N)C(=O)O", "note": "[Arginine]", "values": [
      {"measurement": "IC50", "setting": "[3]", "result": "250 to 500", "unit": "µM"}
    ]},
    {"smiles": "COC(=O)[C@@H](N)Cc1c[nH]c2ccccc12", "note": "[L-tryptophan methyl ester]", "values": [
      {"measurement": "inhibition of ATB^0,+-specific glycine uptake", "setting": "[1]", "result": "inhibited"}
    ]},
    {"smiles": "CC(=O)N[C@@H](Cc1c[nH]c2ccccc12)C(=O)O", "note": "[N-acetyl-L-tryptophan]", "values": [
      {"measurement": "inhibition of ATB^0,+-specific glycine uptake", "setting": "[1]", "result": "not able to inhibit"},
      {"measurement": "inward currents induced in ATB^0,+-expressing oocytes", "setting": "[2]", "result": "did not induce currents"}
    ]}
  ]
}
